Laboratory results as given in ChEMBL document CHEMBL5356994, “Synthesis, biological and molecular modelling for 1,3,4-thiadiazole sulfonyl thioureas: bacterial and fungal activity” (RSC Med Chem, 2023).
Values after ≈ are worked out from the molar mass of the structure shown.

Assays:
[1] = tested on: Aspergillus niger; assay: Antifungal activity against Aspergillus niger assessed as inhibition of fungal growth incubated for 72 hrs by agar dilution method; assay type: functional
[2] = tested on: Fusarium oxysporum; assay: Antifungal activity against Fusarium oxysporum assessed as inhibition of fungal growth incubated for 72 hrs by agar dilution method; assay type: functional
[3] = tested on: Streptococcus pneumoniae; assay: Antibacterial activity against Streptococcus pneumoniae assessed as inhibition of bacterial growth incubated for 18 to 20 hrs by microbroth dilution method; assay type: functional; settings: time 18-20 hrs
[4] = tested on: Aspergillus flavus; assay: Antifungal activity against Aspergillus flavus assessed as inhibition of fungal growth incubated for 72 hrs by agar dilution method; assay type: functional
[5] = tested on: Saccharomyces cerevisiae; assay: Antifungal activity against Saccharomyces cerevisiae assessed as inhibition of fungal growth incubated for 72 hrs by agar dilution method; assay type: functional
[6] = tested on: Clostridioides difficile; assay: Antibacterial activity against Clostridium difficile assessed as inhibition of bacterial growth incubated for 18 to 20 hrs by microbroth dilution method; assay type: functional; settings: time 18-20 hrs
[7] = tested on: Escherichia coli; assay: Antibacterial activity against Escherichia coli assessed as inhibition of bacterial growth incubated for 18 to 20 hrs by microbroth dilution method; assay type: functional; settings: time 18-20 hrs
[8] = tested on: Pseudomonas aeruginosa; assay: Antibacterial activity against Pseudomonas aeruginosa assessed as inhibition of bacterial growth incubated for 18 to 20 hrs by microbroth dilution method; assay type: functional; settings: time 18-20 hrs
[9] = tested on: Staphylococcus aureus; assay: Antibacterial activity against Staphylococcus aureus assessed as inhibition of bacterial growth incubated for 18 to 20 hrs by microbroth dilution method; assay type: functional; settings: time 18-20 hrs
[10] = tested on: Klebsiella pneumoniae; assay: Antibacterial activity against Klebsiella pneumoniae assessed as inhibition of bacterial growth incubated for 18 to 20 hrs by microbroth dilution method; assay type: functional; settings: time 18-20 hrs
[11] = tested on: Staphylococcus epidermidis; assay: Antibacterial activity against Staphylococcus epidermidis assessed as inhibition of bacterial growth incubated for 18 to 20 hrs by microbroth dilution method; assay type: functional; settings: time 18-20 hrs
[12] = tested on: Candida albicans; assay: Antifungal activity against Candida albicans assessed as inhibition of fungal growth incubated for 72 hrs by agar dilution method; assay type: functional
[13] = tested on: Salmonella typhimurium; assay: Antibacterial activity against Salmonella typhimurium assessed as inhibition of bacterial growth incubated for 18 to 20 hrs by microbroth dilution method; assay type: functional, Salmonella enterica subsp. enterica serovar Typhimurium; settings: Salmonella enterica; time 18-20 hrs
[14] = tested on: Bacillus subtilis; assay: Antibacterial activity against Bacillus subtilis assessed as inhibition of bacterial growth incubated for 18 to 20 hrs by microbroth dilution method; assay type: functional; settings: time 18-20 hrs
[15] = biological target: Dihydrofolate reductase (Staphylococcus aureus, UniProt P0A017); assay: Inhibition of Staphylococcus aureus dihydrofolate reductase using dihydrofolate as substrate in presence of NADPH by microplate reader analysis
[16] = biological target: DNA topoisomerase 4 subunit B (Staphylococcus aureus, UniProt P0C1S7); assay: Inhibition of Staphylococcus aureus DNA topoisomerase 4 subunit B ATPase activity using relaxed pNO1 plasmid as substrate incubated for 30 mins by microplate reader analysis
[17] = biological target: DNA gyrase subunit B (Staphylococcus aureus, UniProt P0A0K8); assay: Inhibition of Staphylococcus aureus DNA gyrase subunit B ATPase activity using relaxed pNO1 plasmid as substrate incubated for 30 mins by microplate reader analysis
[18] = tested on: Mycobacterium tuberculosis; assay: Antitubercular activity against Mycobacterium tuberculosis H37Rv assessed as inhibition of bacterial growth incubated for 24 hrs by two-fold dilution method; assay type: functional

Sequence of Dihydrofolate reductase (P0A017 whole entry): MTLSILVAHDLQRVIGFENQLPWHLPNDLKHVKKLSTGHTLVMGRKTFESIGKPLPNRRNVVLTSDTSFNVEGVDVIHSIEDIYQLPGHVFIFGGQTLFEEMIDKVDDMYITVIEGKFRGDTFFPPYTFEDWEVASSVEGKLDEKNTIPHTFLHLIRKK
Sequence of DNA gyrase subunit B (P0A0K8 whole entry): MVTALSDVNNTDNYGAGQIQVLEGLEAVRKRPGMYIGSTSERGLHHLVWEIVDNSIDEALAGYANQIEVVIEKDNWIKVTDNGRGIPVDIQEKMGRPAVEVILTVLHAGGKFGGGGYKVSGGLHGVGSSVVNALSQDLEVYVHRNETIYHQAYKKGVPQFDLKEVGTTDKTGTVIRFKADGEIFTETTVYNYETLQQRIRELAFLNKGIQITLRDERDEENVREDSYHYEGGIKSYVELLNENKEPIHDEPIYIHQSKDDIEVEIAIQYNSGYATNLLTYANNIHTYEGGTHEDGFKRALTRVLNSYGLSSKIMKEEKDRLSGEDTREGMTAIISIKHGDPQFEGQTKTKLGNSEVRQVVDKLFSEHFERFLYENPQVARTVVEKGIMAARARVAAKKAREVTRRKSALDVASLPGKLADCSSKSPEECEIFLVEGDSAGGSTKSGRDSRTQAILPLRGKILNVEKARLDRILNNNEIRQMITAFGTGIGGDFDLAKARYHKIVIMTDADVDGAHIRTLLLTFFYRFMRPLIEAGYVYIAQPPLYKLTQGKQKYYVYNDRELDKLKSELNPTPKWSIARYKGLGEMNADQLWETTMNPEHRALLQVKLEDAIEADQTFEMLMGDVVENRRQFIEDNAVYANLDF
Sequence of DNA topoisomerase 4 subunit B (P0C1S7 whole entry): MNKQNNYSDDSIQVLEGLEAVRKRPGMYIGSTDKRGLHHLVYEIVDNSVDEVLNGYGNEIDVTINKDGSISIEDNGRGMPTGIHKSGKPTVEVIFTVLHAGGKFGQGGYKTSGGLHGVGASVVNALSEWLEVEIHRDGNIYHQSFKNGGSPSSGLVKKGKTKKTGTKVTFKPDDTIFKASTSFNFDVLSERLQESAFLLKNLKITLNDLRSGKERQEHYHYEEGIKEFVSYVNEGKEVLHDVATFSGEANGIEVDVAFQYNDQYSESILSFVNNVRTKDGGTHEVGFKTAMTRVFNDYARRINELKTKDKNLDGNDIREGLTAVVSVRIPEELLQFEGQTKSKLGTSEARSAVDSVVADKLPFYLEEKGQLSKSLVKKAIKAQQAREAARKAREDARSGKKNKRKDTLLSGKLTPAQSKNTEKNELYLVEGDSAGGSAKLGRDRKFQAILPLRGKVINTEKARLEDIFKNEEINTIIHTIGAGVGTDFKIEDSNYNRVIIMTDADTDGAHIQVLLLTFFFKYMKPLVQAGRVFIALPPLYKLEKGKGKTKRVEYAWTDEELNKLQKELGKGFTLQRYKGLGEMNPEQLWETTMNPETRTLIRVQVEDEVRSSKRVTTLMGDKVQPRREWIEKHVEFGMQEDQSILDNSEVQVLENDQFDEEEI

Row | Compound | MIC [1] [mg/L] | MIC [2] [mg/L] | MIC [3] [mg/L] | MIC [4] [mg/L] | MIC [5] [mg/L] | MIC [6] [mg/L] | MIC [7] [mg/L] | MIC [8] [mg/L] | MIC [9] [mg/L] | MIC [10] [mg/L] | MIC [11] [mg/L] | MIC [12] [mg/L] | MIC [13] [mg/L] | MIC [14] [mg/L] | IC50 [15] [µM] | IC50 [16] [µM] | IC50 [17] [µM] | MIC [18] [µM]
1 | Cc1ccc(S(=O)(=O)NC(=S)Nc2nnc(CC(C)C)s2)cc1 | 50 (≈ 135 µM) | 1.56 (≈ 4.21 µM) | 0.78 (≈ 2.11 µM) | 0.78 (≈ 2.11 µM) | 3.12 (≈ 8.43 µM) | 3.12 (≈ 8.43 µM) | 6.25 (≈ 16.9 µM) | 6.25 (≈ 16.9 µM) | 100 (≈ 270 µM) | 400 (≈ 1080 µM) | 12.5 (≈ 33.7 µM) | 3.12 (≈ 8.43 µM) | 50 (≈ 135 µM) | 0.78 (≈ 2.11 µM) |  |  |  | 
2 | CCCc1nnc(NC(=S)NS(=O)(=O)c2ccc(C)cc2)s1 | 12.5 (≈ 35.1 µM) | 200 (≈ 561 µM) | 1.56 (≈ 4.38 µM) | 1.56 (≈ 4.38 µM) | 1.56 (≈ 4.38 µM) | 25 (≈ 70.1 µM) | 12.5 (≈ 35.1 µM) | 100 (≈ 281 µM) | 50 (≈ 140 µM) | 25 (≈ 70.1 µM) | 25 (≈ 70.1 µM) | 3.12 (≈ 8.77 µM) | 25 (≈ 70.1 µM) | 3.12 (≈ 8.77 µM) |  |  |  | 
3 | CCCCc1nnc(NC(=S)NS(=O)(=O)c2ccc(C)cc2)s1 | 400 (≈ 1080 µM) | 400 (≈ 1080 µM) | 400 (≈ 1080 µM) | 400 (≈ 1080 µM) | 400 (≈ 1080 µM) | 400 (≈ 1080 µM) | 400 (≈ 1080 µM) | 400 (≈ 1080 µM) | 400 (≈ 1080 µM) | 400 (≈ 1080 µM) | 400 (≈ 1080 µM) | 400 (≈ 1080 µM) | 400 (≈ 1080 µM) | 400 (≈ 1080 µM) |  |  |  | 
4 | CCc1nnc(NC(=S)NS(=O)(=O)c2ccc(C)cc2)s1 | 100 (≈ 292 µM) | 6.25 (≈ 18.2 µM) | 3.12 (≈ 9.12 µM) | 6.25 (≈ 18.2 µM) | 25 (≈ 73 µM) | 0.78 (≈ 2.28 µM) | 200 (≈ 584 µM) | 50 (≈ 146 µM) | 6.25 (≈ 18.2 µM) | 12.5 (≈ 36.5 µM) | 50 (≈ 146 µM) | 1.56 (≈ 4.56 µM) | 3.12 (≈ 9.12 µM) | 1.56 (≈ 4.56 µM) | 0.47 | 78.1 | 3.17 | 
5 | FC(F)(F)c1cc(NC(=S)Nc2nnc(-c3ccc(Cl)cc3)s2)ccc1Cl |  |  |  |  |  |  |  |  |  |  |  |  |  |  |  |  |  | 10.9 (≈ 4.9 µg/mL)
6 | Cc1ccc(S(=O)(=O)NC(=S)Nc2nnc(C)s2)cc1 | 50 (≈ 152 µM) | 25 (≈ 76.1 µM) | 12.5 (≈ 38.1 µM) | 25 (≈ 76.1 µM) | 6.25 (≈ 19 µM) | 6.25 (≈ 19 µM) | 50 (≈ 152 µM) | 1.56 (≈ 4.75 µM) | 25 (≈ 76.1 µM) | 6.25 (≈ 19 µM) | 100 (≈ 304 µM) | 0.78 (≈ 2.37 µM) | 12.5 (≈ 38.1 µM) | 6.25 (≈ 19 µM) |  |  |  | 
7 | Cc1ccc(S(=O)(=O)NC(=S)Nc2nncs2)cc1 | 200 (≈ 636 µM) | 25 (≈ 79.5 µM) | 12.5 (≈ 39.8 µM) | 50 (≈ 159 µM) | 12.5 (≈ 39.8 µM) | 200 (≈ 636 µM) | 1.56 (≈ 4.96 µM) | 25 (≈ 79.5 µM) | 3.12 (≈ 9.94 µM) | 50 (≈ 159 µM) | 3.12 (≈ 9.94 µM) | 25 (≈ 79.5 µM) | 1.56 (≈ 4.96 µM) | 12.5 (≈ 39.8 µM) | 0.37 | 67.6 | 1.56 | 
8 | CCCCCc1nnc(NC(=S)NS(=O)(=O)c2ccc(C)cc2)s1 | 3.12 (≈ 8.13 µM) | 1.56 (≈ 4.06 µM) | 200 (≈ 520 µM) | 12.5 (≈ 32.5 µM) | 400 (≈ 1040 µM) | 12.5 (≈ 32.5 µM) | 0.78 (≈ 2.03 µM) | 0.78 (≈ 2.03 µM) | 0.78 (≈ 2.03 µM) | 1.56 (≈ 4.06 µM) | 0.78 (≈ 2.03 µM) | 200 (≈ 520 µM) | 100 (≈ 260 µM) | 200 (≈ 520 µM) | 0.23 | 53.8 | 1.22 | 
9 | Cc1ccc(S(=O)(=O)NC(=S)Nc2nnc(C(C)C)s2)cc1 | 6.25 (≈ 17.5 µM) | 6.25 (≈ 17.5 µM) | 3.12 (≈ 8.77 µM) | 200 (≈ 561 µM) | 100 (≈ 281 µM) | 50 (≈ 140 µM) | 3.12 (≈ 8.77 µM) | 12.5 (≈ 35.1 µM) | 12.5 (≈ 35.1 µM) | 3.12 (≈ 8.77 µM) | 1.56 (≈ 4.38 µM) | 6.25 (≈ 17.5 µM) | 6.25 (≈ 17.5 µM) | 1.56 (≈ 4.38 µM) |  |  |  | 
10 | Cc1ccc(S(=O)(=O)NC(=S)Nc2nnc(CCC(C)C)s2)cc1 | 0.78 (≈ 2.03 µM) | 0.78 (≈ 2.03 µM) | 50 (≈ 130 µM) | 3.12 (≈ 8.13 µM) | 0.78 (≈ 2.03 µM) | 1.56 (≈ 4.06 µM) | 25 (≈ 65 µM) | 3.12 (≈ 8.13 µM) | 1.56 (≈ 4.06 µM) | 0.78 (≈ 2.03 µM) | 6.25 (≈ 16.3 µM) | 12.5 (≈ 32.5 µM) | 0.78 (≈ 2.03 µM) | 100 (≈ 260 µM) | 0.35 | 66.7 | 1.62 | 
11 | Fc1ccc(NC(=S)Nc2nnc(-c3ccc(Cl)cc3)s2)cc1 |  |  |  |  |  |  |  |  |  |  |  |  |  |  |  |  |  | 11 (≈ 4 µg/mL)
12 | Fc1ccc(NC(=S)Nc2nnc(-c3ccc(F)cc3)s2)cc1 |  |  |  |  |  |  |  |  |  |  |  |  |  |  |  |  |  | 10.9 (≈ 3.8 µg/mL)
13 | O=C(O)c1cn(C2CC2)c2cc(N3CCNCC3)c(F)cc2c1=O [CIPROFLOXACIN] |  |  |  |  |  |  |  | 1.56 (≈ 4.71 µM) | 3.12 (≈ 9.43 µM) | 1.56 (≈ 4.71 µM) | 3.12 (≈ 9.43 µM) |  | 1.56 (≈ 4.71 µM) | 3.12 (≈ 9.43 µM) |  |  |  | 
14 | CC[C@@H](CO)NCCN[C@@H](CC)CO [ETHAMBUTOL] |  |  |  |  |  |  |  |  |  |  |  |  |  |  |  |  |  | 11.5 (≈ 2.35 µg/mL)
15 | NNC(=O)c1ccncc1 [ISONIAZID] |  |  |  |  |  |  |  |  |  |  |  |  |  |  |  |  |  | 17.8 (≈ 2.44 µg/mL)
16 | Clc1ccc(COC(Cn2ccnc2)c2ccc(Cl)cc2Cl)c(Cl)c1 (centres undefined) [MICONAZOLE] | 1.56 (≈ 3.75 µM) | 3.12 (≈ 7.51 µM) |  | 1.56 (≈ 3.75 µM) | 3.12 (≈ 7.51 µM) |  |  |  |  |  |  | 3.12 (≈ 7.51 µM) |  |  |  |  |  | 
17 | CN[C@H](CC(C)C)C(=O)N[C@H]1C(=O)N[C@@H](CC(N)=O)C(=O)N[C@H]2C(=O)N[C@H]3C(=O)N[C@H](C(=O)N[C@H](C(=O)O)c4cc(O)cc(O)c4-c4cc3ccc4O)[C@H](O)c3ccc(c(Cl)c3)Oc3cc2cc(c3O[C@@H]2O[C@H](CO)[C@@H](O)[C@H](O)[C@H]2O[C@H]2C[C@](C)(N)[C@H](O)[C@H](C)O2)Oc2ccc(cc2Cl)[C@H]1O [VANCOMYCIN] |  |  | 1.56 (≈ 1.08 µM) |  |  | 1.56 (≈ 1.08 µM) |  |  | 1.56 (≈ 1.08 µM) |  | 0.78 (≈ 0.538 µM) |  |  | 1.56 (≈ 1.08 µM) |  |  |  | 
